Measured values reported in ChEMBL document CHEMBL4507268 (2021).

Tests used:
Conditions in all cases: Compound concentration 1000.0 nM
[1] = target: T1, Serine/threonine-protein kinase 3 (Homo sapiens) (UniProt Q13188)
T1 sequence (whole entry): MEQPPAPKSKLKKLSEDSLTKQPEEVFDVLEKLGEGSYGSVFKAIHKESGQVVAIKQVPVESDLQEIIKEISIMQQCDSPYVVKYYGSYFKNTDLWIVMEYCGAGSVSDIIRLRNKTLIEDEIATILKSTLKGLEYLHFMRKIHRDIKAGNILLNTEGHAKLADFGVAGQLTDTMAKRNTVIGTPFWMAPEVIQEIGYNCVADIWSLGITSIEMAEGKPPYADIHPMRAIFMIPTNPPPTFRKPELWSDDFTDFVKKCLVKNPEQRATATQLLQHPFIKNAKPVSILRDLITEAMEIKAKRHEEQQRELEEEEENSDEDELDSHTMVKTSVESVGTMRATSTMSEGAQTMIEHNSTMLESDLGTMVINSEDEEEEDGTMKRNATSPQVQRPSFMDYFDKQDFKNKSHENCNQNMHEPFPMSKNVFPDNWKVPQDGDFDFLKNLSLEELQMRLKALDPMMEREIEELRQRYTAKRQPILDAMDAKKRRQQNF

[2] = target: Mitogen-activated protein kinase 9 (Homo sapiens) (UniProt P45984)
Chain of Mitogen-activated protein kinase 9 (Homo sapiens) (P45984 whole entry, looked up): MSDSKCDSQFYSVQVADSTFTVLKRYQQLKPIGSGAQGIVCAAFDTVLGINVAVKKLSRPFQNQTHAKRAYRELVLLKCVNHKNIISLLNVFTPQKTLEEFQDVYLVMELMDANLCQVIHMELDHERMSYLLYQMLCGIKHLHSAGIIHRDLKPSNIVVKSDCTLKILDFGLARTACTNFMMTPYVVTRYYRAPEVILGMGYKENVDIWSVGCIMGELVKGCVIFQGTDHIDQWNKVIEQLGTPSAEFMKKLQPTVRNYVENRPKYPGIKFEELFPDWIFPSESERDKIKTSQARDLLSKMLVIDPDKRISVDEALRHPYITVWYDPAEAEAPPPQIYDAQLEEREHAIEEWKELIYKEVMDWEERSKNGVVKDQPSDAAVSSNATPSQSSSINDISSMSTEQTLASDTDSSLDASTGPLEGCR

[3] = target: T2, Inhibitor of nuclear factor kappa-B kinase subunit beta (Homo sapiens) (UniProt O14920)
T2 sequence (whole entry): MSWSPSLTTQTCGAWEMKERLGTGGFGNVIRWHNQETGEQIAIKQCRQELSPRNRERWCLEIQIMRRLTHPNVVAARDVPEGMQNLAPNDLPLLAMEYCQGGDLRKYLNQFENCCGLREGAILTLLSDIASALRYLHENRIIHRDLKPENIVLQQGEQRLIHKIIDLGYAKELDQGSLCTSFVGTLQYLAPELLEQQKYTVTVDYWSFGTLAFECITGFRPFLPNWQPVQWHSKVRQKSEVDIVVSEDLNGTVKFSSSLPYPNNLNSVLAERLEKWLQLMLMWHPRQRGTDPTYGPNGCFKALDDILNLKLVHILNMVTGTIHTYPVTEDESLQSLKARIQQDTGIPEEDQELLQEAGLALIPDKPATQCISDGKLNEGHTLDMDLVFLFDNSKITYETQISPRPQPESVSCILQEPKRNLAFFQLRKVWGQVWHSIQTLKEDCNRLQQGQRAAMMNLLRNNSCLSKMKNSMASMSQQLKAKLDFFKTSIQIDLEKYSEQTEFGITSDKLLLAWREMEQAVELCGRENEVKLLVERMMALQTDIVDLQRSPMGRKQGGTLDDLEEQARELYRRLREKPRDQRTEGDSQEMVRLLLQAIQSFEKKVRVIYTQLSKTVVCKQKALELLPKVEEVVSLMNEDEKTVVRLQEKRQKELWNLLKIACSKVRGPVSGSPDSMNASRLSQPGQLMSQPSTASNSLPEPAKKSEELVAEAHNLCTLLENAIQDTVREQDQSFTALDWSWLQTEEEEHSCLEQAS

[4] = target: Mitogen-activated protein kinase kinase kinase 19 (Homo sapiens) (UniProt Q56UN5)
[5] = target: Phosphatidylinositol 4,5-bisphosphate 3-kinase catalytic subunit alpha isoform (Homo sapiens) (UniProt P42336)
Chain of Phosphatidylinositol 4,5-bisphosphate 3-kinase catalytic subunit alpha isoform (Homo sapiens) (P42336 whole entry, canonical isoform): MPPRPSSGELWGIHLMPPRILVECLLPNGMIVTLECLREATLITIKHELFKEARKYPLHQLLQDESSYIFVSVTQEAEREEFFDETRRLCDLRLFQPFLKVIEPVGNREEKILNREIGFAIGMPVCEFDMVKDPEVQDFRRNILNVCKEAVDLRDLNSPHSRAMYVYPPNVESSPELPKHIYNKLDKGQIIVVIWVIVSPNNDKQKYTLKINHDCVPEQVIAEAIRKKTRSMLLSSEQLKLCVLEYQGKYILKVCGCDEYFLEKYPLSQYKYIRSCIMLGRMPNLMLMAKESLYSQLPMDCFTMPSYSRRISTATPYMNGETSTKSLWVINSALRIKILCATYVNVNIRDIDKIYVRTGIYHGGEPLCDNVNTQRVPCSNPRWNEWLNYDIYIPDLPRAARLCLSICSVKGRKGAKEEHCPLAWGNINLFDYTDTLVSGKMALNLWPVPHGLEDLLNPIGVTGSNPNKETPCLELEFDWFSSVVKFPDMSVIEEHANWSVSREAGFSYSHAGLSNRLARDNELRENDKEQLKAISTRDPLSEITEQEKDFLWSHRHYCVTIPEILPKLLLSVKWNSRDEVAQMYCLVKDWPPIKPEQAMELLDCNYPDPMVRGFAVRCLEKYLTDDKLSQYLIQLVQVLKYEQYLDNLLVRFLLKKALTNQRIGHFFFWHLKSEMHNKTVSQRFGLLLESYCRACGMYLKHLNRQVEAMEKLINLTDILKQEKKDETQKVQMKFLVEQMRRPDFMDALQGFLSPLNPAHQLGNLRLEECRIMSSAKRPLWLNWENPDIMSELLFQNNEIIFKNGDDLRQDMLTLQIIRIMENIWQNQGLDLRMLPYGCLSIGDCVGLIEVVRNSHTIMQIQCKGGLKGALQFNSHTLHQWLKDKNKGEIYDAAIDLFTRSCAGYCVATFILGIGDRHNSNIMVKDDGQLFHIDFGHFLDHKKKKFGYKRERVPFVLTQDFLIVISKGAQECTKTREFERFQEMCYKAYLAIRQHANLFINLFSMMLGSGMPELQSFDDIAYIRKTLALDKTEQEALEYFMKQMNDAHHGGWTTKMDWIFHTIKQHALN

[6] = target: T3, Ephrin type-B receptor 4 (Homo sapiens) (UniProt P54760)
T3 sequence (whole entry): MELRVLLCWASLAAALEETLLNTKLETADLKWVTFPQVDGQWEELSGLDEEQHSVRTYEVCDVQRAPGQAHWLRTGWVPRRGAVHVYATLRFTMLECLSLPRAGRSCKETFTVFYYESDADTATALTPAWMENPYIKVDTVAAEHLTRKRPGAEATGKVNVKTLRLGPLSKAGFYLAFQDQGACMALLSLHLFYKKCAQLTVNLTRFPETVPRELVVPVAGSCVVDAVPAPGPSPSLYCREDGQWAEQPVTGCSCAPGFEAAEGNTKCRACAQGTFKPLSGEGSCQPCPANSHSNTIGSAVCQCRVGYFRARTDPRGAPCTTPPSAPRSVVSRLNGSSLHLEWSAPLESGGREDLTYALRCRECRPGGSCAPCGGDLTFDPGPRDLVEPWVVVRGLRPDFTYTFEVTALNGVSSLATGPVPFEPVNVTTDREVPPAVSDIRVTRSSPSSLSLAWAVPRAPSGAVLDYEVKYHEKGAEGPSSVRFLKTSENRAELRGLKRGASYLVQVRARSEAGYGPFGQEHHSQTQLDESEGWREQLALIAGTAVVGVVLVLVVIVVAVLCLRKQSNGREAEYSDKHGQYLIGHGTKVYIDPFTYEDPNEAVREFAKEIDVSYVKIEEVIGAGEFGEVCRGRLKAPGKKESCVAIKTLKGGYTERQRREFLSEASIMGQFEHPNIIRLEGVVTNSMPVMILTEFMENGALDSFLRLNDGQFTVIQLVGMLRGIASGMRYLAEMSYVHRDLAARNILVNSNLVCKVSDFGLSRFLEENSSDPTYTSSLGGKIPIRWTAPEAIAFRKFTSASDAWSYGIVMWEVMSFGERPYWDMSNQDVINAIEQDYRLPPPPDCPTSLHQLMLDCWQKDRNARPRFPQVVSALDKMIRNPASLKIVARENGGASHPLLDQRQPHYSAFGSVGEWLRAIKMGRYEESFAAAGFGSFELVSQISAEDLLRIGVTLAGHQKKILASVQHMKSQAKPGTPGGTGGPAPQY

[7] = target: Serine/threonine-protein kinase PknB (Mycobacterium tuberculosis) (UniProt P9WI81)
Chain of Serine/threonine-protein kinase PknB (Mycobacterium tuberculosis) (P9WI81 whole entry): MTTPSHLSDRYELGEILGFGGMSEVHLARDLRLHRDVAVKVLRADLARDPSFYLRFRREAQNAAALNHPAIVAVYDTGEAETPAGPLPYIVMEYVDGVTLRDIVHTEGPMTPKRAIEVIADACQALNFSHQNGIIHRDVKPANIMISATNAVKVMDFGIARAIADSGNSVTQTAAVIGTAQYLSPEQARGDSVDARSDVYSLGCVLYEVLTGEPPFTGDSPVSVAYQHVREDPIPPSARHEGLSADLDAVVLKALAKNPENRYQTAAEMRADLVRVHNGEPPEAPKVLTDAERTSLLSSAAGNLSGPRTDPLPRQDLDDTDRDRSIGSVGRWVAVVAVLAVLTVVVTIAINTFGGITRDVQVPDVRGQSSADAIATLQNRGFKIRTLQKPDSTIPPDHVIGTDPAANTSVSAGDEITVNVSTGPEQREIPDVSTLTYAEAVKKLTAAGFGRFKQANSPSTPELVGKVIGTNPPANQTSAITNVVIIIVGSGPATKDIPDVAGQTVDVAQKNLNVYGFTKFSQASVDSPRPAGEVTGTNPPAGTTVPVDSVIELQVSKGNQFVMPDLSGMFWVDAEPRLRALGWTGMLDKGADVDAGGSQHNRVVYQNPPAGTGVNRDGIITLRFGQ

[8] = target: Cyclin-dependent kinase-like 5 (Homo sapiens) (UniProt O76039)
Chain of Cyclin-dependent kinase-like 5 (Homo sapiens) (O76039 whole entry): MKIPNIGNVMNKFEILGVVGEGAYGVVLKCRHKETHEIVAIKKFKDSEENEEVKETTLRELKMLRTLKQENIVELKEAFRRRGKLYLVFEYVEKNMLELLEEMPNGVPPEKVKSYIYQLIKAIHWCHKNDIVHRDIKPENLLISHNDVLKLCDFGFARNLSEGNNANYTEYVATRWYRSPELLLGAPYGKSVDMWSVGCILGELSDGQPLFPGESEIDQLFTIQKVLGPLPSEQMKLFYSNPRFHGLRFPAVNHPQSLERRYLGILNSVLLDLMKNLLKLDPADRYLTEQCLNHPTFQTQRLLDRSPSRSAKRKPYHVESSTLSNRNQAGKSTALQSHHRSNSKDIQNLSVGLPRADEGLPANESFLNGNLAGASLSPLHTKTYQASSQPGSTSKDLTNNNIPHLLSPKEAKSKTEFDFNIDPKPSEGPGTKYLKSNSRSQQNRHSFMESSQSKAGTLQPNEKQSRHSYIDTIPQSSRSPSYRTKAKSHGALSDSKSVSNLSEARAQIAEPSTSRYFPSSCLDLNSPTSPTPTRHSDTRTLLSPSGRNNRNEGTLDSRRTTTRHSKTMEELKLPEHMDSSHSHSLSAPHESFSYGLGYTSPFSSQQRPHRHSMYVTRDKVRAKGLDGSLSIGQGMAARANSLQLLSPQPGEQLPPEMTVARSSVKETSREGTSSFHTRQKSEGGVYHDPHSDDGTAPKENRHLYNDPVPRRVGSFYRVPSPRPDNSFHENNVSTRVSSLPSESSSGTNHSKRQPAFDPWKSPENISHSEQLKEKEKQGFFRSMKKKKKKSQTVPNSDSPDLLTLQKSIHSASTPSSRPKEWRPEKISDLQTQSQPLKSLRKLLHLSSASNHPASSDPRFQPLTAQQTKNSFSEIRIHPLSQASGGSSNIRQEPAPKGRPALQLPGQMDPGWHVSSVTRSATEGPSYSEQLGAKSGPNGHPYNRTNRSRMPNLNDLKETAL

[9] = target: Serine/threonine-protein kinase RIO3 (Homo sapiens) (UniProt O14730)
Chain of Serine/threonine-protein kinase RIO3 (Homo sapiens) (O14730 whole entry): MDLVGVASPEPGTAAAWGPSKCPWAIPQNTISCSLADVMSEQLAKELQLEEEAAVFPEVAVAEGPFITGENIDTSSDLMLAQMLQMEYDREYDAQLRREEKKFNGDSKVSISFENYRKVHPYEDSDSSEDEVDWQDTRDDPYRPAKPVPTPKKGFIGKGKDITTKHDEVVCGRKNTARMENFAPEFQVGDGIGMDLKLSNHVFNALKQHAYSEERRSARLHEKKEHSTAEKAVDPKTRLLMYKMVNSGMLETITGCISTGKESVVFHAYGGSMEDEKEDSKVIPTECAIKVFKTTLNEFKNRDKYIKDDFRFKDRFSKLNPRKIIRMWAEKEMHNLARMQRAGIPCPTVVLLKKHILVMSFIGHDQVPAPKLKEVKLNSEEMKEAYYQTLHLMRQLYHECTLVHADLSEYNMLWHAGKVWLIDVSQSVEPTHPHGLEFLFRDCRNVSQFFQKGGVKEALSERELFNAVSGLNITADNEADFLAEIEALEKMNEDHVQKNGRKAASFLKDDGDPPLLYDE

[10] = target: Protein kinase C eta type (Homo sapiens) (UniProt P24723)
Chain of Protein kinase C eta type (Homo sapiens) (P24723 whole entry, canonical isoform): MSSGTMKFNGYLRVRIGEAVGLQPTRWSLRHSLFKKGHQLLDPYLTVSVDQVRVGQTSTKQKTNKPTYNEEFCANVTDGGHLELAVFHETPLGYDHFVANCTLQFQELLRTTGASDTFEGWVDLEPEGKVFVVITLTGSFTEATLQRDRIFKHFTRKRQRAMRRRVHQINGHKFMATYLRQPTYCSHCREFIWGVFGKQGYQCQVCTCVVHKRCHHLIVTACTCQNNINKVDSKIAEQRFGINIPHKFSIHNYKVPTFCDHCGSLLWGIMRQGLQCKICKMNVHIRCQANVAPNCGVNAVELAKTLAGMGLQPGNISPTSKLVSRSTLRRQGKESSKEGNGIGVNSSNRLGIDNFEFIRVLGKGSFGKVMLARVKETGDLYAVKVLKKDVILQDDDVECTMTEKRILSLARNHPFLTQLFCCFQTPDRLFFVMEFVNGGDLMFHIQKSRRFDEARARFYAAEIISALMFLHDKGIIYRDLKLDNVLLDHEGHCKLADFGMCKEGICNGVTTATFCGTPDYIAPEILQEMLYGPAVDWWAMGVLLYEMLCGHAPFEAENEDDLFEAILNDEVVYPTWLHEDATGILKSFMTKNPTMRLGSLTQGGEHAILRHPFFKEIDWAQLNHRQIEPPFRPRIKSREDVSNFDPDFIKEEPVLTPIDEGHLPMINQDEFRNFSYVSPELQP

[11] = tested on: Phosphatidylinositol 4,5-bisphosphate 3-kinase catalytic subunit alpha isoform (Homo sapiens), P42336 [H1047Y]
Chain of Phosphatidylinositol 4,5-bisphosphate 3-kinase catalytic subunit alpha isoform (Homo sapiens), P42336 [H1047Y] (P42336 whole entry H1047Y, canonical isoform): as the sequence (P42336 whole entry, canonical isoform) above, with H1047Y counted along it

[12] = target: Activin receptor type-1-like (Homo sapiens) (UniProt P37023)
Chain of Activin receptor type-1-like (Homo sapiens) (P37023 whole entry): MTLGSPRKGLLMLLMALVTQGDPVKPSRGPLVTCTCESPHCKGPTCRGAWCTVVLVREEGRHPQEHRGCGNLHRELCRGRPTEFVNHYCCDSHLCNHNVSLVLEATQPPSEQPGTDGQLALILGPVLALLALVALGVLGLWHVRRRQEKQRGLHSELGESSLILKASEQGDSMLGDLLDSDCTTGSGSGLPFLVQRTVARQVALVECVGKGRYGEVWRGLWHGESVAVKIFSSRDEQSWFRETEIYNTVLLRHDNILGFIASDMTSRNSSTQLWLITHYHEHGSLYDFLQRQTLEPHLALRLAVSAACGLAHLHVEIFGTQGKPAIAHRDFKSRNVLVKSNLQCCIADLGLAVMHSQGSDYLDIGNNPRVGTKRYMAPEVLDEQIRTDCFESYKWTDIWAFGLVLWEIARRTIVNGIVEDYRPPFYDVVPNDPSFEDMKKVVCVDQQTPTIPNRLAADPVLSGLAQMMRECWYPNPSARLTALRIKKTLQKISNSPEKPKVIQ

Measured: residual activity

Cc1nc(C2CCN(C(=O)c3ccc(OC(F)(F)F)cc3N)CC2)c2ncc(N3CCN(C)CC3)cc2n1 [BAY-693]
inactive: [1] 79% | [2] 100% | [3] 78% | [4] 79% | [5] 81% | [6] 92% | [7] 100% | [8] 89% | [9] 87% | [10] 88% | [11] 69% | [12] 91%

CN1CCN(c2cnc3c(C4CCN(C(=O)c5ccc(OC(F)(F)F)cc5N)CC4)ncnc3c2)CC1 [BAY-885]
inactive: [1] 82% | [2] 100% | [3] 100% | [4] 83% | [5] 95% | [6] 100% | [7] 97% | [8] 93% | [9] 97% | [10] 86% | [11] 92% | [12] 94%
